From publication PMC7429850, “Critical enzymes for biosynthesis of cucurbitacin derivatives in watermelon and their biological significance” (Communications Biology, 2020)

tested on: T1, ACT3 (Cla022713); type: biochemical, Citrullus lanatus; conditions: 10 mM acetyl-CoA, 50 mM sodium phosphate pH 7.4, 30 °C; C16-O-acetylation
T1 construct: plant material in Methods: Number One
Description: acetylation assay, product by HPLC/LC-MS, Michaelis-Menten fit on ACT3 (Cla022713)

Structure (SMILES)	Km [µM]
CC(=O)OC(C)(C)/C=C/C(=O)[C@](C)(O)[C@H]1[C@H](O)C[C@@]2(C)[C@@H]3CC=C4[C@@H](C[C@H](O)C(=O)C4(C)C)[C@]3(C)C(=O)C[C@]12C [CuB]	11.8 ± 1.74
CC(C)(O)/C=C/C(=O)[C@](C)(O)[C@H]1[C@H](O)C[C@@]2(C)[C@@H]3CC=C4[C@@H](C[C@H](O)C(=O)C4(C)C)[C@]3(C)C(=O)C[C@]12C [CuD]	10.4 ± 1.19
CC(=O)OC(C)(C)/C=C/C(=O)[C@](C)(O)[C@H]1[C@H](O)C[C@@]2(C)[C@@H]3CC=C4[C@@H](C=C(O[C@@H]5O[C@H](CO)[C@@H](O)[C@H](O)[C@H]5O)C(=O)C4(C)C)[C@]3(C)C(=O)C[C@]12C [CuE-Glu]	11.6 ± 1.62
CC(=O)OC(C)(C)/C=C/C(=O)[C@](C)(O)[C@H]1[C@H](O)C[C@@]2(C)[C@@H]3CC=C4[C@@H](C=C(O)C(=O)C4(C)C)[C@]3(C)C(=O)C[C@]12C [CuE]	7.63 ± 4.83
CC(C)(O)/C=C/C(=O)[C@](C)(O)[C@H]1[C@H](O)C[C@@]2(C)[C@@H]3CC=C4[C@@H](C=C(O)C(=O)C4(C)C)[C@]3(C)C(=O)C[C@]12C [CuI]	8.62 ± 0.95
